Experimental data published in patent US11583528B2, “FFA1 (GPR40) as a therapeutic target for neural angiogenesis diseases or disorders” (Children's Medical Center Corporation, priority 2016, dated 2023).
Entries after “also recorded” stand apart in the source; their conditions may differ.

Columns and labels:
pancreatic β-cell = details: by reducing β-cell overload; cited from earlier work
Glut1 [1] = assay: Retinal Glut1 expression after in vivo treatment (qRT-PCR / Western blot); set-up: species or system mouse; details: versus control
Source text: All studies adhered to the NIH guide for the Care and Use of laboratory animals, the Association for Research in Vision and Ophthalmology (ARVO) Statement for the Use of Animals in Ophthalmic and Vision Research and were approved by the Institutional Animal Care and Use Committee at Boston Children's Hospital. Vldlr knockout mice (Vldlr^−/−; Jackson Lab Stock: 002529) were crossed with wild type C57Bl/6 mice to obtain heterozygous breeders for littermate controlled experiments. Vldlr^−/− mice were also crossed with Ffar1 knockout mice (Ffar1^−/−)^1 to ultimately obtain Vldlr^−/−/Ffar1^−/+ heterozygous breeders and double knockout mice (Vldlr^−/−/Ffar1^−/−). […] Littermate Vldlr^−/− pups were treated from P8 to P15 with WY164363 (50 mg/kg once daily, intraperitoneal; Sigma), GW9508 (14 μM, once daily intraperitoneal; Cayman), TAK-875 (15 mg/kg twice daily, gavage; Selleckchem), medium chain triglyceride oil (MCT, 20 μL once daily gavage; Nestle) or corresponding vehicle and sacrificed at P16 to quantify retinal vascular lesions. […]
Retinal samples were obtained as described above. […] Densitometry was analyzed using ImageJ. Retinal Vegfa concentration was measured by ELISA (as per manual, MMV00, R&D Systems) and normalized by doing a Bradford to measure the total cell protein content of each samples.

Vldlr−/− mice = assay: Quantification of RAP-like retinal vascular lesions in Vldlr−/− mice; format: in vivo, mouse; details: Vldlr−/− pups treated from P8 to P15, lesions quantified at P16, versus vehicle control
Source text: All studies adhered to the NIH guide for the Care and Use of laboratory animals, the Association for Research in Vision and Ophthalmology (ARVO) Statement for the Use of Animals in Ophthalmic and Vision Research and were approved by the Institutional Animal Care and Use Committee at Boston Children's Hospital. Vldlr knockout mice (Vldlr^−/−; Jackson Lab Stock: 002529) were crossed with wild type C57Bl/6 mice to obtain heterozygous breeders for littermate controlled experiments. Vldlr^−/− mice were also crossed with Ffar1 knockout mice (Ffar1^−/−)^1 to ultimately obtain Vldlr^−/−/Ffar1^−/+ heterozygous breeders and double knockout mice (Vldlr^−/−/Ffar1^−/−). Pups weighing less than 5 grams or more than 7 grams at postnatal day (P)16 were excluded (Stahl, A., et al. Am J Pathol 177, 2715-2723 (2010)). Littermate Vldlr^−/− pups were treated from P8 to P15 with WY164363 (50 mg/kg once daily, intraperitoneal; Sigma), GW9508 (14 μM, once daily intraperitoneal; Cayman), TAK-875 (15 mg/kg twice daily, gavage; Selleckchem), medium chain triglyceride oil (MCT, 20 μL once daily gavage; Nestle) or corresponding vehicle and sacrificed at P16 to quantify retinal vascular lesions. Mice pups of both genders were used.
For quantification of outer retina vascular lesions, reminiscent of retinal angiomatous proliferation (RAP) or macular telangiectasia (MacTel), mice were euthanized with a mixture of xylazine and ketamine and eyes were enucleated and fixed in 4% paraformaldehyde for 1 h at room temperature. […] For quantification of retinal lesions 20 images of each whole-mounted retina were obtained at 10× magnification on a Zeiss AxioObserver.Z1 microscope and merged to form one image using AxioVision 4.6.3.0 software. Vascular lesion counts were analyzed using the SWIFT_MACTEL method, an adaptation of the method used to measure neovascularization (SWIFT_NV) (Stahl, A., et al. Angiogenesis 12, 297-301 (2009) in the oxygen induced retinopathy model. […]

photoreceptors (661W) [2] = assay: Oxygen consumption and extracellular acidification rates of photoreceptor (661W) cells (Seahorse XFe96); format: cell-based
Protocol: (§1) All oxygen consumption rates were measured using a Seahorse XFe96 Flux Analyzer®. Whole retinas were isolated and 1 mm punch biopsies were loaded into the 96 well plate. Retinal punches were incubated in assay media (DMEM 5030 media supplemented with 12 mM glucose, 10 mM HEPES and 26 mM NaHCO3) to measure oxygen consumption rates (OCR) and extracellular acidification rates (ECAR). Photoreceptor (661W) cells, were incubated in their assay media (DMEM 5030, 12 mM glucose, 10 mM HEPES) one hour prior to measurements. Fatty acid oxidation rates were determined by treating tissues or cells with Etomoxir (40 μM; Sigma) 40 min prior to analysis and then providing BSA (control) or BSA/Palmitate conjugate (Seahorse). Glucose oxidation rates were measured after injection of 2-deoxyglucose (2-DG, 100 mM; Sigma) or media control during data acquisition. To determine the maximal fatty acid or glucose oxidative capacity, the nonmitochondrial respiration (rate after injection of 2 μM Rotenone and 2 μM Antimycin A) was subtracted from the oxygen consumption rate after injection of 0.5 μM carbonyl cyanide-ptrifluoromethoxyphenylhydrazone (FCCP).

Hif1α [3] = assay: Retinal Hif1α stabilization after in vivo treatment (Western blot); set-up: species or system mouse
Protocol: (§2) Retinal samples were obtained as described above. Retinal lysate (20 μg) from three different animals or endothelial cells lysate (10 μg) were loaded on an SDS-PAGE gel and electroblotted onto a PVDF membrane. After blocking, the membranes were incubated with antibodies against β-Actin (Sigma, A1978), Hif1α (Novus, NB100-134), and Glut1 (Novus, NB300-666 and Abcam, Ab652) overnight (1:1000 each). After washing, membranes were incubated with 1:10,000 horseradish peroxidase-conjugated anti-rabbit or anti-mouse secondary antibodies (Amersham, NA931V and NA934V) for one hour at room temperature. Densitometry was analyzed using ImageJ. Retinal Vegfa concentration was measured by ELISA (as per manual, MMV00, R&D Systems) and normalized by doing a Bradford to measure the total cell protein content of each samples.

Hif1α [4] = assay: Hif1α protein in photoreceptor (661W) cells (Western blot); format: cell-based; details: 661W photoreceptors, 8 hours post-treatment
Protocol: as §2
(§3) Cone photoreceptor cells (al-Ubaidi, M. R., J Cell Biol 119, 1681-1687 (1992), and Tan, E., et al. Invest Ophthalmol Vis Sci 45, 764-768 (2004)) (661W; from Dr. Al-Ubaidi) were cultured as monolayers at 37° C., 5% CO2 in a humidified atmosphere in DMEM with FBS 10% supplemented with hydrocortisone (20 μg/500 mL, H-2270, Sigma), Progesterone (20 μg/500 mL, P-8783, Sigma), Putrescine (0.016 g/500 mL, P-7505, Sigma) and β-mercaptoethanol (20 μL/500 mL, M-6250, Sigma). Equal number of 661W cells (0.3×106) were plated in 6-well dishes and cultured to 80% confluence. […]

photoreceptors (661W) [5] = assay: Glucose uptake of photoreceptor (661W) cells; format: cell-based; details: 661W photoreceptors
Protocol: Whole retinas and photoreceptors (661W) were incubated in assay media (DMEM 5030, 12 mM glucose, 10 mM HEPES) for 6 and 48 hours respectively. Media was collected, spun briefly (13 g) to remove cellular debris, and glucose and lactate levels measured using a Yellow Springs Instrument (YSI) 2950 were compared to control media that was not exposed to tissue or cells. To determine the conversion of glucose to lactate (the glycolytic rate), lactate production was divided by glucose uptake.

Glut1 [6] = assay: Glut1 expression in photoreceptor (661W) cells; format: cell-based; details: 661W photoreceptors
Protocol: RNA samples from cell culture, whole retina or laser-captured neovessels and layers were treated with DNase I (Qiagen, Chatsworth, Calif.) to remove any contaminating genomic DNA. The DNase-treated RNA was then converted into cDNA using reverse transcriptase (Invitrogen). PCR primers for target genes and the control gene, cyclophilin A, were designed using Primer Bank and NCBI Primer Blast software. Quantitative analysis of gene expression was generated using an ABI Prism 7700 Sequence Detection System with the SYBR Green Master mix kit and gene expression was calculated relative to cyclophilin A using the ΔcT method.
as §3, with “[…] Photoreceptors” for “Equal number of 661W cells (0.3×106)”, “then collected 8 hours post-treatment for Hif1α protein expression (see Western blot); while their medium was collected at 12 hours for Vegfa quantification by ELISA (as per manual, MMV00, R&D Systems).” for “plated in 6-well dishes and cultured to 80% confluence.”

WT and Vldlr−/− mice = assay: Retinal glucose uptake (3H-2-deoxyglucose tracer) in treated pups; format: in vivo, mouse; details: WT and Vldlr−/− retinas; GW9508 14 μM daily i.p. for 5 days (P7-P12)
Protocol: Positron emission tomography (PET) imaging studies were performed on WT, Vldlr^−/−/Ffar1^−/and Ffar1^−/− mice (P16; Focus 120 high-resolution, Siemens), followed by micro CAT imaging (MicroCAT II scanner, Siemens). Fluorine-18 fluorodeoxyglucose FDG) was administered by intraperitoneal injection (i.p.) to obtain nontoxic radioactivity levels (3.7 and 37 MBq; or 0.1 to 1.0 mCi). Actual administered activity was determined using a dose calibrator to measure activity in the syringe before and after the injection. Images were acquired 60 minutes after injection to ensure radiotracer uptake. Mice were fasted for 6 hours prior to imaging, kept in darkness and anesthetized by inhalation of isoflurane (2-4%) through a nose cone for the duration of the procedure. Animals were imaged in a head first, prone position, and placed on a heating pad to maintain appropriate body temperature. Upon completion of imaging, mice were euthanized and retinas were dissected for precise ^18F-FDG retinal activity, quantification by gamma counter, and corrected for decay. […] Retinas were collected and homogenized in a scintillation cocktail (Ecolite+, MP biomedicals) and betacounts measured using the LS6500 Multipurpose Scintillation Counter (Beckman).

retinas = assay: Oxygen consumption rate of ex vivo retinas (Seahorse XFe96); format: cell-based, mouse; details: WT retinal explants with palmitate, etomoxir 40 μM
Protocol: as §1

Compound: CCCCc1ccc(NS(=O)(=O)c2ccc(F)cc2)cc1 [DC260126, N-(4-Butylphenyl)-4-fluoro-benzenesulfonamide]
- pancreatic β-cell dysfunction (pancreatic β-cell): protect

Compound: Cc1cc(OCCCS(C)(=O)=O)cc(C)c1-c1cccc(COc2ccc3c(c2)OC[C@H]3CC(=O)O)c1 [TAK-875]
- Glut1 expression in retina (Glut1 [1]; Vldlr−/− retinas only): increased Glut1 suppression
- number of RAP-like pathologic vascular lesions (Vldlr−/− mice): significantly increased and more

Compound: CCCCCCCN(CCc1ccc(SC(C)(C)C(=O)O)cc1)C(=O)Nc1ccc(F)cc1F [GW9578]
- extracellular acidification rate (ECAR), reflecting lactate production from glycolysis (photoreceptors (661W) [2]; 661W photoreceptors, GW9578 100 nM, 48 hours): without significantly affecting; also recorded: not detectably affected
- mitochondrial respiration by FA β-oxidation (OCR) (photoreceptors (661W) [2]; 661W photoreceptors, palmitate, GW9578 100 nM, 48 hours): induced; also recorded: further increased

Compound: O=C(O)CCc1ccc(NCc2cccc(Oc3ccccc3)c2)cc1 [GW9508]
- Hif1α stabilization in retina (Hif1α [3]; Vldlr−/− retinas): stabilized
- Hif1α stabilization in retina (Hif1α [3]; WT retinas): stabilized
- Hif1α stabilization (Hif1α [4]): stabilized; also recorded: stabilization
- glucose uptake (photoreceptors (661W) [5]): decreased
- Glut1 expression in retina (Glut1 [1]; WT and Vldlr−/− retinas): reduces; also recorded: suppressed
- number of RAP-like pathologic vascular lesions (Vldlr−/− mice): more than doubled
- Glut1 expression (Glut1 [6]): suppression
- retinal glucose uptake (3H-2-DG tracer) (WT and Vldlr−/− mice): suppressed; also recorded: reduction

Compound: COc1cccc(-c2cc(=O)c3ccccc3o2)c1N [PD98059]
- effect on FFA1-mediated Glut1 suppression by GW9508 (Glut1 [6]; PD98059, 20 μM, SP600125, Ffar1 siRNA): prevented

Compound: Cc1cccc(Nc2cc(Cl)nc(SCC(=O)O)n2)c1C [WY16463]
- number of RAP-like pathologic vascular lesions (Vldlr−/− mice): reduced

Compound: CCOC(=O)[C@@]1(CCCCCCOc2ccc(Cl)cc2)CO1 [Etomoxir]
- mitochondrial respiration (OCR) with FA oxidation inhibitor (retinas): abrogated
- effect on the increase in respiration (OCR) (photoreceptors (661W) [2]; 661W photoreceptors with palmitate, etomoxir 40 μM): abrogated
